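Grown in 96-well plates, cells were treated for 48 hours with each compound at five concentrations. Insufficient inhibition: endpoint recorded as highest concentration tested. TGI is the concentration that stops growth completely.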
What was measured:
Test in all cases: growth of human tumour cells (NCI), 48 h
T-47D breast = test system: T-47D breast
U251 CNS = test system: U251 CNS
SN12C renal = test system: SN12C renal
BT-549 breast = test system: BT-549 breast
MOLT-4 leukemia = test system: MOLT-4 leukemia
TK-10 renal = test system: TK-10 renal
MDA-MB-231 breast = test system: MDA-MB-231 breast
RXF 393 renal = test system: RXF 393 renal
HOP-92 NSCLC = test system: HOP-92 NSCLC
CCRF-CEM leukemia = test system: CCRF-CEM leukemia
M14 melanoma = test system: M14 melanoma
SK-OV-3 ovarian = test system: SK-OV-3 ovarian
OVCAR-4 ovarian = test system: OVCAR-4 ovarian
NCI/ADR-RES ovarian = test system: NCI/ADR-RES ovarian
OVCAR-3 ovarian = test system: OVCAR-3 ovarian
MDA-MB-435 = test system: MDA-MB-435
NCI-H23 lung = test system: NCI-H23 lung
KM12 colon = test system: KM12 colon
HCT-15 colon = test system: HCT-15 colon
NCI-H460 lung = test system: NCI-H460 lung
CAKI-1 renal = test system: CAKI-1 renal
RPMI-8226 leukemia = test system: RPMI-8226 leukemia
HS 578T breast = test system: HS 578T breast
DU-145 prostate = test system: DU-145 prostate
SK-MEL-2 melanoma = test system: SK-MEL-2 melanoma
SF-539 CNS = test system: SF-539 CNS
SF-295 CNS = test system: SF-295 CNS
SK-MEL-28 melanoma = test system: SK-MEL-28 melanoma
SK-MEL-5 melanoma = test system: SK-MEL-5 melanoma
HCT-116 colon = test system: HCT-116 colon
IGROV1 ovarian = test system: IGROV1 ovarian
786-0 renal = test system: 786-0 renal
MALME-3M melanoma = test system: MALME-3M melanoma
MDA-N = test system: MDA-N
SNB-75 CNS = test system: SNB-75 CNS
HL-60(TB) leukemia = test system: HL-60(TB) leukemia
A498 renal = test system: A498 renal
A549 NSCLC = test system: A549 NSCLC
COLO 205 colon = test system: COLO 205 colon
HOP-62 NSCLC = test system: HOP-62 NSCLC
ACHN renal = test system: ACHN renal
OVCAR-8 ovarian = test system: OVCAR-8 ovarian
K-562 leukemia = test system: K-562 leukemia
SNB-19 CNS = test system: SNB-19 CNS
LOX IMVI melanoma = test system: LOX IMVI melanoma
UACC-62 melanoma = test system: UACC-62 melanoma
MCF7 breast = test system: MCF7 breast
PC-3 prostate = test system: PC-3 prostate
NCI-H522 lung = test system: NCI-H522 lung
SW-620 colon = test system: SW-620 colon
SR leukemia = test system: SR leukemia
UACC-257 melanoma = test system: UACC-257 melanoma
NCI-H226 lung = test system: NCI-H226 lung
UO-31 renal = test system: UO-31 renal
SF-268 CNS = test system: SF-268 CNS
OVCAR-5 ovarian = test system: OVCAR-5 ovarian
EKVX NSCLC = test system: EKVX NSCLC
HT29 colon = test system: HT29 colon

Measured: TGI

NC(=O)CC(N)C(N)=O (stereo not given)
not listed: UO-31 renal | SF-268 CNS | OVCAR-5 ovarian | EKVX NSCLC | HT29 colon
> 100 µM: all other assays above

COCCOc1nc(-c2ccccc2)nc2ccccc12
45.5 µM: RPMI-8226 leukemia
87.6 µM: HOP-92 NSCLC
43.3 µM: HCT-15 colon
90 µM: M14 melanoma
88.3 µM: SK-MEL-5 melanoma
70 µM: A498 renal
62 µM: NCI-H460 lung
30.6 µM: RXF 393 renal
70.4 µM: MOLT-4 leukemia
60.9 µM: SR leukemia
73 µM: HS 578T breast
not listed: CCRF-CEM leukemia | 786-0 renal | NCI-H226 lung
> 100 µM: all other assays above

S=C1Nc2cnc3ccccc3c2SC1c1ccccc1 (stereo not given)
99.4 µM: RXF 393 renal
not listed: HOP-92 NSCLC | CCRF-CEM leukemia | SK-MEL-2 melanoma | SF-539 CNS | A498 renal | SW-620 colon
> 100 µM: all other assays above
